Values quoted from earlier work in patent US20230065168A1, “[…] COMBINATION WITH A REPLICATION-DEFICIENT TYPE 5 […] EXPRESSION OF INTERFERON GAMMA FOR THE TREATMENT OF SKIN CANCER” (ASCEND BIOPHARMACEUTICALS LTD, priority 2021, published 2023).

Q: What does the source list for `CS(=O)(=O)c1ccc(C(=O)Nc2ccc(Cl)c(-c3ccccn3)c2)c(Cl)c1` [vismodegib, 2-Chloro-N-(4-chloro-3-(pyridin-2-yl)phenyl)-4-(methylsulfonyl)benzamide]?
A: time at which adverse events generally begin to manifest (oral daily treatment): 6-8 weeks; adverse events commonly associated with administration (patients with advanced BCC): muscle spasms, alopecia, dysgeusia, weight loss, fatigue, nausea, diarrhea, decreased appetite, constipation, arthralgia, vomiting, and ageusia
